From US11802111B2, “Cyclobutyl amide monoacylglycerol lipase modulators” (Janssen Pharmaceutica NV, priority 2020, dated 2023)

Target: human MGL from HeLa cells (Homo sapiens (Human), UniProt Q99685)
Assay: MGL in vitro activity assay ([glycerol-1,3-3H]-oleoyl glycerol hydrolysis, activated carbon filtration)
Format: biochemical
Conditions: 300 nM [Glycerol-1,3-3H]-oleoyl glycerol, one hour
In short: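 Activity measured as tritium in the flow-through after activated carbon filtration of a 1 h reaction containing 300 nM 3H-oleoyl glycerol, compound and HeLa-derived human MGL. Compounds screened at 10 μM; IC50 series start at an empirically chosen highest concentration.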

human MGL from HeLa cells, sequence (Q99685 whole entry): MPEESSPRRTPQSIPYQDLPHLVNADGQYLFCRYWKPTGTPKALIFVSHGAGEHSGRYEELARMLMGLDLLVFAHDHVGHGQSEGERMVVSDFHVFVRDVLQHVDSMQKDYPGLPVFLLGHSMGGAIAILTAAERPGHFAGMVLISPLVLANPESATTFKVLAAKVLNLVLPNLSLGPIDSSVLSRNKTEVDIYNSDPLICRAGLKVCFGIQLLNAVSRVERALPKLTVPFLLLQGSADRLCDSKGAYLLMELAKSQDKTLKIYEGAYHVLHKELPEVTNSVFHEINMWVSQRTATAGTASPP

Compound | IC50 [nM]
Cc1ccc(C)c(OC2CCC3(CC2)CN(C(=O)[C@H]2C[C@@](C)(O)C2)C3)n1 [Example 429, (7-((3,6-Dimethylpyridin-2-yl)oxy)-2-azaspiro[3.5]nonan-2-yl)((1s,3 s)-3-hydroxy-3-methylcyclobutyl)methanone] | 19
C[C@]1(O)C[C@@H](C(=O)N2CC3(CC[C@H](c4cccc(C(F)(F)F)c4)C3)C2)C1 (stereo in doubt) [Example 63, ((1s,3*R)-3-Hydroxy-3-methylcyclobutyl)((*S)-6-(3-(trifluoromethyl)phenyl)-2-azaspiro[3.4]octan-2-yl)methanone] | 22
CC(C)c1cccc([C@H]2CCC3(C2)CN(C(=O)[C@H]2C[C@@](C)(O)C2)C3)c1 (stereo in doubt) [Example 48, ((1s,3*R)-3-Hydroxy-3-methylcyclobutyl)((*S)-6-(3-isopropylphenyl)-2-azaspiro[3.4]octan-2-yl)methanone] | 17
C[C@]1(O)C[C@@H](C(=O)N2CC3(CCC(c4cn5c(n4)CCCC5)CC3)C2)C1 [Example 396, ((1s,3s)-3-Hydroxy-3-methylcyclobutyl)(7-(5,6,7,8-tetrahydroimidazo[1,2-a]pyridin-2-yl)-2-azaspiro[3.5]nonan-2-yl)methanone] | 7240
CC1(Oc2ccc(C(F)(F)F)cn2)CCC2(CC1)CN(C(=O)[C@H]1C[C@@](C)(O)C1)C2 [Example 419, ((1s,3s)-3-Hydroxy-3-methylcyclobutyl)(7-methyl-7-((5-(trifluoromethyl)pyridin-2-yl)oxy)-2-azaspiro[3.5]nonan-2-yl)methanone] | 12
C[C@]1(O)C[C@@H](C(=O)N2CC3(CCC(Oc4cccc(C5CC5)c4F)C3)C2)C1 (mixture of isomers) [Example 334, (rac)-(6-(3-Cyclopropyl-2-fluorophenoxy)-2-azaspiro[3.4]octan-2-yl)((1s,3s)-3-hydroxy-3-methylcyclobutyl)methanone] | 125
C[C@]1(O)C[C@@H](C(=O)N2CC3(CCC(c4cn5ccccc5n4)CC3)C2)C1 [Example 391] | 1270
CC(C)(C)c1ccccc1CC1CC2(C1)CN(C(=O)[C@H]1C[C@@](C)(O)C1)C2 [Example 208, (6-(2-(tert-Butyl)benzyl)-2-azaspiro[3.3]heptan-2-yl)((1s,3s)-3-hydroxy-3-methylcyclobutyl)methanone] | 5.3
Cn1c(C2CCC3(C2)CN(C(=O)[C@H]2C[C@@](C)(O)C2)C3)nc2ccccc21 (mixture of isomers) [Example 112, (rac)-((1s,3s)-3-Hydroxy-3-methylcyclobutyl)(6-(1-methyl-1H-benzo[d]imidazol-2-yl)-2-azaspiro[3.4]octan-2-yl)methanone] | 5530
Cc1cccc(CC2CC3(C2)CN(C(=O)[C@H]2C[C@@](C)(O)C2)C3)c1C(F)(F)F [Example 209, ((1s,3s)-3-Hydroxy-3-methylcyclobutyl)(6-(3-methyl-2-(trifluoromethyl)benzyl)-2-azaspiro[3.3]heptan-2-yl)methanone] | 2.2
C[C@]1(O)C[C@@H](C(=O)N2CC3(CC(Cc4cccc5ccnn45)C3)C2)C1 [Example 285, ((1s,3s)-3-Hydroxy-3-methylcyclobutyl)(6-(pyrazolo[1,5-c]pyridin-7-ylmethyl)-2-azaspiro[3.3]heptan-2-yl)methanone] | 47
C[C@]1(O)C[C@@H](C(=O)N2CC3(CC(Cc4ccc(C5CC5)cc4)C3)C2)C1 [Example 219, (6-(4-Cyclopropylbenzyl)-2-azaspiro[3.3]heptan-2-yl)((1s,3s)-3-hydroxy-3-methylcyclobutyl)methanone] | 1.2
Cc1cc(CC2CC3(C2)CN(C(=O)[C@H]2C[C@@](C)(O)C2)C3)ccc1C1CC1 [Example 202, (6-(4-Cyclopropyl-3-methylbenzyl)-2-azaspiro[3.3]heptan-2-yl)((1s,3s)-3-hydroxy-3-methylcyclobutyl)methanone] | 0.6
Cn1ccc2ccc(C(F)(F)C3CC4(C3)CN(C(=O)[C@H]3C[C@@](C)(O)C3)C4)nc21 [Example 317, (6-(Difluoro(1-methyl-1H-pyrrolo[2,3-b]pyridin-6-yl)methyl)-2-azaspiro[3.3]heptan-2-yl)((1s,3s)-3-hydroxy-3-methylcyclobutyl)methanone] | 69
C[C@]1(O)C[C@@H](C(=O)N2CC3(CC[C@H](c4cccc(C5CC5)c4F)C3)C2)C1 (stereo in doubt) [Example 26, ((*S)-6-(3-Cyclopropyl-2-fluorophenyl)-2-azaspiro[3.4]octan-2-yl)((1s,3*R)-3-hydroxy-3-methylcyclobutyl)methanone] | 28
COc1cc(OC2CCC3(CC2)CN(C(=O)[C@H]2C[C@@](C)(O)C2)C3)ncc1Cl [Example 460, (7-((5-Chloro-4-methoxypyridin-2-yl)oxy)-2-azaspiro[3.5]nonan-2-yl)((1s,3s)-3-hydroxy-3-methylcyclobutyl)methanone] | 142
Cc1ccccc1C1CCC2(CC1)CN(C(=O)[C@H]1C[C@@](C)(O)C1)C2 [Example 138, ((1s,3s)-3-Hydroxy-3-methylcyclobutyl)(7-(o-tolyl)-2-azaspiro[3.5]nonan-2-yl)methanone] | 47

Compound | IC50 [nM]
C[C@]1(O)C[C@@H](C(=O)N2CC3(CCC(c4cccc(C5CC5)c4F)C3)C2)C1 (mixture of isomers) [Example 24, (rac)-(6-(3-Cyclopropyl-2-fluorophenyl)-2-azaspiro[3.4]octan-2-yl)((1s,3s)-3-hydroxy-3-methylcyclobutyl)methanone] | 11
CC(C)c1cccc(C2(O)CCC3(CC2)CN(C(=O)[C@H]2C[C@@](C)(O)C2)C3)c1 [Example 151, ((1s,3s)-3-Hydroxy-3-methylcyclobutyl)(7-hydroxy-7-(3-isopropylphenyl)-2-azaspiro[3.5]nonan-2-yl)methanone] | 4.6
C[C@]1(O)C[C@@H](C(=O)N2CC3(CC[C@@H](c4cccc(OC(F)(F)F)c4)C3)C2)C1 (stereo in doubt) [Example 41, ((1s,3*S)-3-Hydroxy-3-methylcyclobutyl)((*R)-6-(3-(trifluoromethoxy)phenyl)-2-azaspiro[3.4]octan-2-yl)methanone] | 23
Cn1ncc2ccc(CC3CCC4(CC3)CN(C(=O)[C@H]3C[C@@](C)(O)C3)C4)cc21 [Example 402, ((1s,3s)-3-Hydroxy-3-methylcyclobutyl)(7-((1-methyl-1H-indazol-6-yl)methyl)-2-azaspiro[3.5]nonan-2-yl)methanone] | 185
COc1cc(F)c(F)c(C2CCC3(CC2)CN(C(=O)[C@H]2C[C@@](C)(O)C2)C3)c1 [Example 368, (7-(2,3-Difluoro-5-methoxyphenyl)-2-azaspiro[3.5]nonan-2-yl)((1s,3s)-3-hydroxy-3-methylcyclobutyl)methanone] | 59
CCC1(Oc2ccc(C(F)(F)F)cn2)CCC2(CC1)CN(C(=O)[C@H]1C[C@@](C)(O)C1)C2 [Example 420, (7-Ethyl-7-((5-(trifluoromethyl)pyridin-2-yl)oxy)-2-azaspiro[3.5]nonan-2-yl)((1s,3s)-3-hydroxy-3-methylcyclobutyl)methanone] | 33
COc1ccc(C2CCC3(C2)CN(C(=O)[C@H]2C[C@@](C)(O)C2)C3)cc1C (mixture of isomers) [Example 76, (rac)-((1s,3s)-3-Hydroxy-3-methylcyclobutyl)(6-(4-methoxy-3-methylphenyl)-2-azaspiro[3.4]octan-2-yl)methanone] | 51
Cc1ccc(C(F)(F)F)cc1OC1CCC2(CC1)CN(C(=O)[C@H]1C[C@@](C)(O)C1)C2 [Example 416, ((1s,3s)-3-Hydroxy-3-methylcyclobutyl)(7-(2-methyl-5-(trifluoromethyl)phenoxy)-2-azaspiro[3.5]nonan-2-yl)methanone] | 1.9
Cn1ncc2ccc(CC3CC4(C3)CN(C(=O)[C@H]3C[C@@](C)(O)C3)C4)cc21 [Example 215, ((1s,3s)-3-Hydroxy-3-methylcyclobutyl)(6-((1-methyl-1H-indazol-6-yl)methyl)-2-azaspiro[3.3]heptan-2-yl)methanone] | 43
COc1cc(F)cc(C2CCC3(CC2)CN(C(=O)[C@H]2C[C@@](C)(O)C2)C3)c1 [Example 104, (7-(3-Fluoro-5-methoxyphenyl)-2-azaspiro[3.5]nonan-2-yl)((1s,3s)-3-hydroxy-3-methylcyclobutyl)methanone] | 26
Cc1ccc(OC2CCC3(C2)CN(C(=O)[C@H]2C[C@@](C)(O)C2)C3)nc1C(F)(F)F (mixture of isomers) [Example 336, (rac)-((1s,3s)-3-Hydroxy-3-methylcyclobutyl)(6-((5-methyl-6-(trifluoromethyl)pyridin-2-yl)oxy)-2-azaspiro[3.4]octan-2-yl)methanone] | 91
CC(C)n1cc2ccc(CC3CC4(C3)CN(C(=O)[C@H]3C[C@@](C)(O)C3)C4)cc2n1 [Example 308, ((1s,3s)-3-Hydroxy-3-methylcyclobutyl)(6-((2-isopropyl-2H-indazol-6-yl)methyl)-2-azaspiro[3.3]heptan-2-yl)methanone] | 117
C[C@]1(O)C[C@@H](C(=O)N2CC3(CCC(c4cccc5ccnn45)CC3)C2)C1 [Example 389, ((1s,3s)-3-Hydroxy-3-methylcyclobutyl)(7-(pyrazolo[1,5-a]pyridin-7-yl)-2-azaspiro[3.5]nonan-2-yl)methanone] | 101
C[C@]1(O)C[C@@H](C(=O)N2CC3(CC(Cc4cccc(OC(F)(F)F)c4)C3)C2)C1 [Example 194, ((1s,3s)-3-Hydroxy-3-methylcyclobutyl)(6-(3-(trifluoromethoxy)benzyl)-2-azaspiro[3.3]heptan-2-yl)methanone] | 4.9
CC(C)c1cccc(C2CCC3(CC2)CN(C(=O)[C@H]2C[C@@](C)(O)C2)C3)c1 [Example 133, ((1s,3s)-3-Hydroxy-3-methylcyclobutyl)(7-(3-isopropylphenyl)-2-azaspiro[3.5]nonan-2-yl)methanone] | 8.2
C[C@]1(O)C[C@@H](C(=O)N2CC3(CCC(Cc4ccc(OC(F)F)cc4)C3)C2)C1 (mixture of isomers) [Example 183, (rac)-(6-(4-(Difluoromethoxy)benzyl)-2-azaspiro[3.4]octan-2-yl)((1s,3s)-3-hydroxy-3-methylcyclobutyl)methanone] | 48
